“And” between values parts separate entries of the source, which are not always exact repeats. Identical values can stand only once. “Also recorded” adds a separate entry of the source. Like-named read-outs stand apart in the source and are kept apart here.
Tests used:
[1] = tested on: SW620 human cancer cells (G12V kRAS); assay: Cytotoxicity assay (CellTiter-Glo 2.0, 72 hours); assay type: cell-based
Experimental: FIG. 1, Cytotoxicity of exemplary compound (Structure 1) on SW620 human cancer cells. The cytotoxicity of compounds of interest are tested against the human colon cancer cell line SW620 as described in the experimental section. SW620 cells express a mutant G12V kRAS. Compounds are incubated with cells for 72 hours and the assay developed using Cell Titer Glo 2.0. IC50 values are determined using GraphPad Prism4.
Structure 1 was assayed for inhibition of cell proliferation and killing cancer cells. Cytotoxicity assays were conducted according to the following general procedure. SW620, SW1990, etc, were all maintained in Leibowitz L15 media supplemented with 10% fetal bovine serum and 1% PenStrep and grown in a 37° C. incubator without supplemental CO2. Cells were plated into 96 well flat bottom plates (2 million/plate, ˜20,000/well, 200 μLmedia/well). The cells were allowed to settle and adhere to plate bottom overnight.
Compounds were diluted in media from a 10 mM stock solution starting at 50 μM, using 2-fold dilutions, in a column in a 96-well plate. Media was removed from the plate containing cells and replaced with media containing diluted compounds. Plates were incubated 72 hours at 37° C. with no supplementary CO2. […] Luminescence was read with a FLx800 (BioTek Instruments). […]

phosphorylated ERK = assay: Phosphorylated ERK western blot in SW1990 cells; assay type: cell-based, human; conditions: 24 hours with compound, EGF 10 ng/mL 15 minutes, FIG. 2
Experimental: (§1) Structure 1 decreased both phosphorylated AKT and phosphorylated ERK. Structure 1 had no effect on AKT or ERK (data not shown).
(§2) A method used to measure ERK and AKT is based on Welsch et al, Cell 168: 878-889 February 2017. SW1990 cells, growth driven by a G12D kRAS mutation and derived from human, pancreatic cancer cells, are plated in a 6-well plate at 1.5×10^6 cells per plate and grown overnight at 37° C. Media is replaced with serum-free media and the plate incubated an additional 24 hours. Media is replaced with media with or without compound and incubated for an additional 24 hours. EGF is added at a concentration of 10 ng/mL. After 15 minutes, cells are washed with ice cold PBS and lysed with RIPA buffer.
(§3) The lysate is processed by electrophoresis using a Mini-PROTEAN® gel mounted in a Mini-PROTEAN® Tetra Cell (cassette). Both the gel and the holding assembly (cassette) are purchased from BIORAD. The gel in the assembly is placed, electrode up, in the buffer tanks. The Tris/glycine/SDS buffer is added to both the inner buffer chamber (200 mL) and the outer buffer chamber (800 mL). […]
(§4) The membrane is placed into TTBS buffer containing SuperBlock T20 (Thermo Scientific) and incubated for 1 hour at room temperature. […] The anti pERK detected both pERK 1 and 2 (T202/Y204). […]

phosphorylated AKT = assay: Phosphorylated AKT western blot in SW1990 cells; assay type: cell-based, human; conditions: 24 hours with compound, EGF 10 ng/mL 15 minutes, FIG. 2
Experimental: as §1, §2, §3, §4

non-phosphorylated ERK = assay: Non-phosphorylated ERK western blot in SW1990 cells; assay type: cell-based, human; conditions: data not shown
Experimental: as §1, §2, §3, §4

non-phosphorylated AKT = assay: Non-phosphorylated AKT western blot in SW1990 cells; assay type: cell-based, human; conditions: data not shown
Experimental: as §1, §2, §3, §4

[2] = tested on: Drosophila melanogaster flies with human G12V kRAS expressed in the wing; assay: Fly screen: reversal of crinkled wing phenotype; assay type: in vivo
Description: The Tosk approach uses Drosophila melanogaster flies as media for initial screening for RAS modulating compounds. Tosk has created a fruit fly with human kRAS G12V expressed in its wing. The mutant kRAS expressed in the fly wing appears functional, even though it operates in the presence of the other physiological systems present in the fly. The fly phenotype in the mutant fly is a crimped wing which can be reversed to a great extent if the fly is fed food enriched with an effective kRAS inhibitor. The fly kRAS suppressor screen can provide a more predictive model compared to conventional discovery methods because the kRAS is in its natural (i.e., not artificial/isolated/manipulated) environment anchored to the plasma membrane, positioned correctly, and surrounded by appropriate neighboring chemicals. Several reports have emphasized the importance of kRAS positioning and environment to realize protein activity.
2. Fly with Crinkled Wing Phenotype.
1. Production of Fly Food/Test Article Mix. A Biomek 2000 robotic arm is used to pipet 40 μL of a 10 mM DMSO solution of Test Article into a 35 mL polypropylene Drosophila fly vial (VWR 89092-728) containing 10 mL ETOH. A half teaspoon blue fly food (4-24, Carolina Biological Supply), is added and the tubes are vortexed and placed into a HT-4X GeneVac to remove the DMSO and ETOH. The tube is vortexed, 4 ml water added, and vortexed again. Control samples are tubes with fly food prepared with just 40 μL DMSO, no Test Article, or 40 μL of a DMSO solution containing 50 μM of the trametanib positive control. 2. Screen. Several hundred male G12V kRAS flies and several hundred GAL4 females are placed in a custom Plexiglas population cage (12″×12″×8″) made fly condo containing grape agar and yeast paste prepared using a published protocol. Embryos from the container are washed off the grape agar onto a sieve and re-suspended in an aqueous sucrose/salt/triton solution. An aliquot of this solution is analyzed using a dissecting microscope to determine the embryo concentration. The appropriate solution to deliver 150 embryos is then added to the fly food/Test article vials. The vial is capped with a cellulose fly bottle plug. […] The vials are incubated at 23° C. in a temperature-controlled room for 12 days. 3. Analysis. After 12 days, all flies in a vial are observed under a microscope following CO2 anesthesia for the number of phenotype reversals compared to the total number of viable flies. Cell culture testing is typically performed for any Test Article showing evidence of >25% phenotype reversal. The trametinib positive control provides reversal of the crimped/crinkled phenotype for 50-75% of the flies.
A library of over 16,000 distinct chemicals was purchased from ChemDiv, San Diego, Calif. All the compounds were evaluated in the fly screen described above for the ability to reverse the crinkled wing phenotype. […] One of the three compounds was Structure 1.

AKT1 = AKT1 (Homo sapiens, UniProt P31749); assay: Protein kinase inhibition; assay type: biochemical; conditions: tested at 3 μM
Experimental: (§5) The exemplary compound was also tested at 3 μM for protein kinase inhibition against the following protein kinases: AKT1, AKT2, AKT3, EGF-R, EGF-R (L858R mutation), FRAP1, GSK3B, MAPK1 (ERK2), MAPK3 (ERK1), BRAF, BRAF V599E, MAP2K1 (MEK1), MAP2K2 (MEK2), PDK1, RAF1, PI3K C2A, PI3K C2B, P13K C3, PI3K 3A, PI3K CB, PI3K CD, and PI3K CG. […] The main downstream targets for kRAS are ERK (Samatar et al., Targeting RAS-ERK signaling in cancer: promises and challenges. Nat Rev Drug Discov. 2014; 13:928-42 and Martini et al., Ann Med. 2014; 46:372-83). kRAS activates ERK and AKT leading to phosphorylated ERK and phosphorylated AKT. A compound that suppresses kRAS activity is expected to lower phosphorylated ERK and phosphorylated AKT.

AKT2 = AKT2 (Homo sapiens, UniProt P31751); assay: Protein kinase inhibition; assay type: biochemical; conditions: tested at 3 μM
Experimental: as §5

AKT3 = AKT3 (Homo sapiens, UniProt Q9Y243); assay: Protein kinase inhibition; assay type: biochemical; conditions: tested at 3 μM
Experimental: as §5

BRAF = BRAF (Homo sapiens, UniProt P15056); assay: Protein kinase inhibition; assay type: biochemical; conditions: tested at 3 μM
Experimental: as §5

BRAF V599E = BRAF V599E (Homo sapiens, UniProt P15056, V600E); assay: Protein kinase inhibition; assay type: biochemical; conditions: tested at 3 μM
Experimental: as §5

EGF-R = EGF-R (Homo sapiens, UniProt P00533); assay: Protein kinase inhibition; assay type: biochemical; conditions: tested at 3 μM
Experimental: as §5

EGF-R (L858R mutation) = EGF-R (L858R mutation) (Homo sapiens, UniProt P00533, L858R); assay: Protein kinase inhibition; assay type: biochemical; conditions: tested at 3 μM
Experimental: as §5

FRAP1 = FRAP1 (Homo sapiens, UniProt P42345); assay: Protein kinase inhibition; assay type: biochemical; conditions: tested at 3 μM
Experimental: as §5

GSK3B = GSK3B (Homo sapiens, UniProt P49841); assay: Protein kinase inhibition; assay type: biochemical; conditions: tested at 3 μM
Experimental: as §5

MAP2K1 (MEK1) = MAP2K1 (MEK1) (Homo sapiens, UniProt Q02750); assay: Protein kinase inhibition; assay type: biochemical; conditions: tested at 3 μM
Experimental: as §5

MAP2K2 (MEK2) = MAP2K2 (MEK2) (Homo sapiens, UniProt P36507); assay: Protein kinase inhibition; assay type: biochemical; conditions: tested at 3 μM
Experimental: as §5

MAPK1 (ERK2) = MAPK1 (ERK2) (Homo sapiens, UniProt P28482); assay: Protein kinase inhibition; assay type: biochemical; conditions: tested at 3 μM
Experimental: as §5

MAPK3 (ERK1) = MAPK3 (ERK1) (Homo sapiens, UniProt P27361); assay: Protein kinase inhibition; assay type: biochemical; conditions: tested at 3 μM
Experimental: as §5

P13K C3 = P13K C3 (Homo sapiens, UniProt Q8NEB9); assay: Protein kinase inhibition; assay type: biochemical; conditions: tested at 3 μM
Experimental: as §5

PDK1 = PDK1 (Homo sapiens, UniProt O15530); assay: Protein kinase inhibition; assay type: biochemical; conditions: tested at 3 μM
Experimental: as §5

PI3K 3A = PI3K 3A (Homo sapiens, UniProt P42336); assay: Protein kinase inhibition; assay type: biochemical; conditions: tested at 3 μM
Experimental: as §5

PI3K C2A = PI3K C2A (Homo sapiens, UniProt O00443); assay: Protein kinase inhibition; assay type: biochemical; conditions: tested at 3 μM
Experimental: as §5

PI3K C2B = PI3K C2B (Homo sapiens, UniProt O00750); assay: Protein kinase inhibition; assay type: biochemical; conditions: tested at 3 μM
Experimental: as §5

PI3K CB = PI3K CB (Homo sapiens, UniProt P42338); assay: Protein kinase inhibition; assay type: biochemical; conditions: tested at 3 μM
Experimental: as §5

PI3K CD = PI3K CD (Homo sapiens, UniProt O00329); assay: Protein kinase inhibition; assay type: biochemical; conditions: tested at 3 μM
Experimental: as §5

PI3K CG = PI3K CG (Homo sapiens, UniProt P48736); assay: Protein kinase inhibition; assay type: biochemical; conditions: tested at 3 μM
Experimental: as §5

RAF1 = RAF1 (Homo sapiens, UniProt P04049); assay: Protein kinase inhibition; assay type: biochemical; conditions: tested at 3 μM
Experimental: as §5

PI3K C2B, sequence (O00750 whole entry): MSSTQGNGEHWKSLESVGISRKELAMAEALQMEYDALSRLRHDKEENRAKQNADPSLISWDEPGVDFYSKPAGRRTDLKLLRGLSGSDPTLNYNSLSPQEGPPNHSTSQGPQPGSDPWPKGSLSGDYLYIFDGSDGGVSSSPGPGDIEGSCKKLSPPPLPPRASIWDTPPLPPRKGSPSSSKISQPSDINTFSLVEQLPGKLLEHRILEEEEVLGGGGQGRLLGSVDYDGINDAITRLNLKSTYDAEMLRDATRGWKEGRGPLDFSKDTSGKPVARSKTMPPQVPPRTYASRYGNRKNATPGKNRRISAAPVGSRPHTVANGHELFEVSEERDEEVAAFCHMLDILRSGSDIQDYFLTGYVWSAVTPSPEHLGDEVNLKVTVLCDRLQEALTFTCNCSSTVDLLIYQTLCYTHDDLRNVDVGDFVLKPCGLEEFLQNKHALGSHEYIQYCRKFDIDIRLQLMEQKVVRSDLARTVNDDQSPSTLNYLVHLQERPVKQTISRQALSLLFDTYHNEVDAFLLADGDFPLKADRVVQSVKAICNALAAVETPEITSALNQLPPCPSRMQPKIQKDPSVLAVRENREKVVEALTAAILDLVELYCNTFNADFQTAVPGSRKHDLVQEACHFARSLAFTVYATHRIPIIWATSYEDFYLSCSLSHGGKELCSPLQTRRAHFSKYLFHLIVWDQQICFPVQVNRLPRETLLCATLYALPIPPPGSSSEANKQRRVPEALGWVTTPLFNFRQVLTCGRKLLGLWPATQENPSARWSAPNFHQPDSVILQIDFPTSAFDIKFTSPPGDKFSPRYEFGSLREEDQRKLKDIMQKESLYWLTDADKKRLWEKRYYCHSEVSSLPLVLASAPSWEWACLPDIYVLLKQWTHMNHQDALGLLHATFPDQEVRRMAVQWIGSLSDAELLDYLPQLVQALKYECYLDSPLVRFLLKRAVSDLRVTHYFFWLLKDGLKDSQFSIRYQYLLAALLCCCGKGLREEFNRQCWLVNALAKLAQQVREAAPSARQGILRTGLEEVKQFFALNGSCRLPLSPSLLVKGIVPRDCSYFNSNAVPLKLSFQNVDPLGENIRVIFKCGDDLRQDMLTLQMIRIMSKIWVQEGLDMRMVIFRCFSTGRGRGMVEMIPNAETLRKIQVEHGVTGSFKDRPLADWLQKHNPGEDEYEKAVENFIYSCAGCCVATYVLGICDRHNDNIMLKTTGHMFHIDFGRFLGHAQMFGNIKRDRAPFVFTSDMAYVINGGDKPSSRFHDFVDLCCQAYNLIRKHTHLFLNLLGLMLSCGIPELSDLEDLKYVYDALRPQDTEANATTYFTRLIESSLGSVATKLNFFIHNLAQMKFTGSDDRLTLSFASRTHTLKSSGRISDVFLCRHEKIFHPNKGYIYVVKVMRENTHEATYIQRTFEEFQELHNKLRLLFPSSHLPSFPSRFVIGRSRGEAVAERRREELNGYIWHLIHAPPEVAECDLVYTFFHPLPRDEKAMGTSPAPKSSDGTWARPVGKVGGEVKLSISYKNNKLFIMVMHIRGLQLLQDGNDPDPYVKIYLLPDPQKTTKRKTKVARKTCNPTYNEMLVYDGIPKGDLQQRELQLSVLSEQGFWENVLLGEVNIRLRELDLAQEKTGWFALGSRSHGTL
MAP2K2 (MEK2), sequence (P36507 whole entry, species assumed): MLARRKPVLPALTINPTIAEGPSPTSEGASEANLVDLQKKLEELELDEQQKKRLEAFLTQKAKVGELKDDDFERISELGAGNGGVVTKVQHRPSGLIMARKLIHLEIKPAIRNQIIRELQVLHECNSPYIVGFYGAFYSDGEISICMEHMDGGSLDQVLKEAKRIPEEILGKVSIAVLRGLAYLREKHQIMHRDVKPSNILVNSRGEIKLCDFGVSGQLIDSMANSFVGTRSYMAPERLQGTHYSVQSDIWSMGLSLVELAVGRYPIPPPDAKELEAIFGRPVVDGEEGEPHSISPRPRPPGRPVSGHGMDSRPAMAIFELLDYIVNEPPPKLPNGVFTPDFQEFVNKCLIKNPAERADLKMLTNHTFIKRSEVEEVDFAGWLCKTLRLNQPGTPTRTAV
AKT1, sequence (P31749 whole entry, species assumed): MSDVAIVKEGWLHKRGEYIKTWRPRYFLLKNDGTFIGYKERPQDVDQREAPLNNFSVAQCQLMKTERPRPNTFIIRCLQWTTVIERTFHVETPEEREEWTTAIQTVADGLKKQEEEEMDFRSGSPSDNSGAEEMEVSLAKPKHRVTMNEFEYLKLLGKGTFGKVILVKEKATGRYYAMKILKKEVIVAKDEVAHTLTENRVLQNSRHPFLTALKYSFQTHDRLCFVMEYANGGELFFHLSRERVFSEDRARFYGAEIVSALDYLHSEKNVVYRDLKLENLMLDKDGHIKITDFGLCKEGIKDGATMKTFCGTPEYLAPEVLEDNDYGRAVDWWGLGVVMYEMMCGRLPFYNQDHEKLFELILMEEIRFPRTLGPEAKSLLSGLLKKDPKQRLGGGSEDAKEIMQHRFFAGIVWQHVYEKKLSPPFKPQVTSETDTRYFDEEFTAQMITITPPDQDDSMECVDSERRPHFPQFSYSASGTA
AKT2, sequence (P31751 whole entry, species assumed): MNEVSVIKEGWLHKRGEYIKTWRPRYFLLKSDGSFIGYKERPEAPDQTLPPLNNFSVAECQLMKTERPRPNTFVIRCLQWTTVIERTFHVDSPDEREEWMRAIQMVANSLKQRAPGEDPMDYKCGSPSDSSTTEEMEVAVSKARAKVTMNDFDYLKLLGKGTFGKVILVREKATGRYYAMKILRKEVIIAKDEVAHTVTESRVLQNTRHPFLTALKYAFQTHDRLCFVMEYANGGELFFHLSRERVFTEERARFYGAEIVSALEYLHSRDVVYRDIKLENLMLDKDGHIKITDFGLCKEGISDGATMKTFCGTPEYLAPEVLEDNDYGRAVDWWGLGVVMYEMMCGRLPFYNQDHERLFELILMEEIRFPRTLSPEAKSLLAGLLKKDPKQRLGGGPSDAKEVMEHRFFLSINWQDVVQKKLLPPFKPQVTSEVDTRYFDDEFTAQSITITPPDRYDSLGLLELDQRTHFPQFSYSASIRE
EGF-R, sequence (P00533 25-1210, species assumed): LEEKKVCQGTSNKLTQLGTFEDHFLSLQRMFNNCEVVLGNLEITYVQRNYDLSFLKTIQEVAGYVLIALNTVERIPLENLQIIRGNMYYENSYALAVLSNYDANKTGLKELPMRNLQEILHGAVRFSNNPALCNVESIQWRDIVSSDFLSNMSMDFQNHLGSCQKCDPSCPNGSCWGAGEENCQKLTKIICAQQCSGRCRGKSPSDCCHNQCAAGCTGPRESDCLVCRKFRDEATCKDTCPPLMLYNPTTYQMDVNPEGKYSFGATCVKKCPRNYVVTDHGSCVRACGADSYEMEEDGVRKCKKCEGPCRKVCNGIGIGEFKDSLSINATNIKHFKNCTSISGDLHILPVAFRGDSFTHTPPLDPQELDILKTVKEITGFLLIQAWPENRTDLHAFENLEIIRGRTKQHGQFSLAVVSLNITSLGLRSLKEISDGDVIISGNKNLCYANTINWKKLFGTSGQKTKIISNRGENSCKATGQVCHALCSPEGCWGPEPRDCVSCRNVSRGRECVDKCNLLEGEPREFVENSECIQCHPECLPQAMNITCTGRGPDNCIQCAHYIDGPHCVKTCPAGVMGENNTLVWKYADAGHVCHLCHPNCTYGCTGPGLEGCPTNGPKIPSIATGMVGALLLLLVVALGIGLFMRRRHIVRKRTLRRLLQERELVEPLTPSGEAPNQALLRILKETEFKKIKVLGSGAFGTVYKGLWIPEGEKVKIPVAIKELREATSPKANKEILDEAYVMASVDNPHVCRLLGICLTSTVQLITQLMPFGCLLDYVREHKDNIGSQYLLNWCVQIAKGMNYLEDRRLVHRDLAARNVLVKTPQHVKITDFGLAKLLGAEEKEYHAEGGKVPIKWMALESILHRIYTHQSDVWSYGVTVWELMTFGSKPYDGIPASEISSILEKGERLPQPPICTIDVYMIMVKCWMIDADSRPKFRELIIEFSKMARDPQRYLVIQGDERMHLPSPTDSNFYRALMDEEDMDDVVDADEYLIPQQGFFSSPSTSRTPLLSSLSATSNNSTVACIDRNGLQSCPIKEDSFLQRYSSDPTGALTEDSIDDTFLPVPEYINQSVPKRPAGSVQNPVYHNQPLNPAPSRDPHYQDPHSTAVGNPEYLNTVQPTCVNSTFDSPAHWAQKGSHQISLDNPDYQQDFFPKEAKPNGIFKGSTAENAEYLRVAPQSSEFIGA
PDK1, sequence (O15530 whole entry): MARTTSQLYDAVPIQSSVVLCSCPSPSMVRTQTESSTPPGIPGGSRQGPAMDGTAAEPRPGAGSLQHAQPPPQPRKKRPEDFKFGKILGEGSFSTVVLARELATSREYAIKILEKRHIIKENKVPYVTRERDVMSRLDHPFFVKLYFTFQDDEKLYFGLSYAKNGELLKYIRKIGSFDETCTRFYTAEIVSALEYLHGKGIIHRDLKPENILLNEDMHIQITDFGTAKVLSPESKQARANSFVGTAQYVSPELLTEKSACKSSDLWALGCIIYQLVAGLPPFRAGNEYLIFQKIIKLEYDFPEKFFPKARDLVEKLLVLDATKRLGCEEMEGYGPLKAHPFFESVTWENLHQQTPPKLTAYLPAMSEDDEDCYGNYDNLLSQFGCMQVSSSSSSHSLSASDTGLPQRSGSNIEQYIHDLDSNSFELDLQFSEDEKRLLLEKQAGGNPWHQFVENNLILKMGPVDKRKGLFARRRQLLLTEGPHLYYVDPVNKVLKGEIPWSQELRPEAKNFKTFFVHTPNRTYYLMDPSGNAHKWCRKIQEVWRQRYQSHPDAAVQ

With `Cc1nc2c(-c3ccccc3)c(C)nn2c(NCc2ccccn2)c1Cc1ccccc1` [Structure 1] the IC50 ([1]; SW-620, Cell Titer Glo 2.0, read-out: IC50, cytotoxicity on SW620 human cancer cells (FIG. 1 legend)) was 3.9 µM, the IC50 ([1]; SW-620, CellTiter-Glo 2.0, read-out: IC50 in the SW620 cells) was 3.9 µM and the “Effect on phosphorylated ERK” value (phosphorylated ERK) was “decreased; also recorded: suppressed”. The “Effect on phosphorylated AKT” value (phosphorylated AKT) was “decreased; also recorded: suppressed”, the “Effect on non-phosphorylated ERK” value (non-phosphorylated ERK) was “no effect; also recorded: without affecting” and the “Effect on non-phosphorylated AKT” value (non-phosphorylated AKT) was “no effect; also recorded: without affecting”. For the same compound, the “Flies with Reversed Phenotype” value ([2]; Experiment 1, 20 μM in fly food) was 75%, the “Flies with phenotype reversals relative to positive control trametinib” value ([2]; Experiment 1, 75% versus 29%) was “over 2.5 fold” and the “Flies with Reversed Phenotype” value ([2]; Experiment 2, 20 μM in fly food) was 58%. The “Ability to reverse the crinkled wing phenotype in library screen” value ([2]; screen of over 16,000 ChemDiv compounds, ~100 μM in fly food, 12 days) was “reliably reversed the phenotype”, the “Kinase inhibitory activity, AKT1” value (AKT1) was “No kinase inhibitory activity” and the “Kinase inhibitory activity, AKT2” value (AKT2) was “No kinase inhibitory activity”. For the same compound, the “Kinase inhibitory activity, AKT3” value (AKT3) was “No kinase inhibitory activity”, the “Kinase inhibitory activity, BRAF” value (BRAF) was “No kinase inhibitory activity” and the “Kinase inhibitory activity, BRAF V599E” value (BRAF V599E) was “No kinase inhibitory activity”. The “Kinase inhibitory activity, EGF-R” value (EGF-R) was “No kinase inhibitory activity”, the “Kinase inhibitory activity, EGF-R (L858R mutation)” value (EGF-R (L858R mutation)) was “No kinase inhibitory activity” and the “Kinase inhibitory activity, FRAP1” value (FRAP1) was “No kinase inhibitory activity”. The “Kinase inhibitory activity, GSK3B” value (GSK3B) was “No kinase inhibitory activity”, the “Kinase inhibitory activity, MAP2K1 (MEK1)” value (MAP2K1 (MEK1)) was “No kinase inhibitory activity” and the “Kinase inhibitory activity, MAP2K2 (MEK2)” value (MAP2K2 (MEK2)) was “No kinase inhibitory activity”. The “Kinase inhibitory activity, MAPK1 (ERK2)” value (MAPK1 (ERK2)) was “No kinase inhibitory activity”, the “Kinase inhibitory activity, MAPK3 (ERK1)” value (MAPK3 (ERK1)) was “No kinase inhibitory activity” and the “Kinase inhibitory activity, P13K C3” value (P13K C3) was “No kinase inhibitory activity”. For the same compound, the “Kinase inhibitory activity, PDK1” value (PDK1) was “No kinase inhibitory activity”, the “Kinase inhibitory activity, PI3K 3A” value (PI3K 3A) was “No kinase inhibitory activity” and the “Kinase inhibitory activity, PI3K C2A” value (PI3K C2A) was “No kinase inhibitory activity”. For the same compound, the “Kinase inhibitory activity, PI3K C2B” value (PI3K C2B) was “No kinase inhibitory activity”, the “Kinase inhibitory activity, PI3K CB” value (PI3K CB) was “No kinase inhibitory activity” and the “Kinase inhibitory activity, PI3K CD” value (PI3K CD) was “No kinase inhibitory activity”. The “Kinase inhibitory activity, PI3K CG” value (PI3K CG) was “No kinase inhibitory activity” and the “Kinase inhibitory activity, RAF1” value (RAF1) was “No kinase inhibitory activity”.
For `CC(=O)Nc1cccc(-n2c(=O)n(C3CC3)c(=O)c3c(Nc4ccc(I)cc4F)n(C)c(=O)c(C)c32)c1` [Trametinib], the “Reversal of the crimped/crinkled phenotype, share of the flies (positive control, general)” value ([2]; 40 μL of 50 μM DMSO solution in fly food, 12 days) was 50-75%, the “Flies with Reversed Phenotype” value ([2]; Experiment 1, 0.5 μM in fly food) was 29% and the “Flies with Reversed Phenotype” value ([2]; Experiment 2, 0.5 μM in fly food) was 63% and 64%. The “Flies with Reversed Phenotype” value ([2]; Experiment 2, 0.5 μM in fly food, listed as trametinib) was 63% and 64%.

Source: patent US11390626B2, “Pyrazolopyrimidine modulators of RAS GTPase” (Tosk, Inc., priority 2019, dated 2022)
